According to patent EP4790063A1, “PEPTIDE HAVING ACTIVITY FOR […] OF MARINE FOULING” (National University Corporation Hokkaido University, priority 2023, dated 2025):
Like-named read-outs stand apart in the source and are kept apart here. Non-standard residues stand in square brackets, D forms with d. Residues, ends and D or L forms follow the SMILES beside them. ξ: configuration not given here. *: point of attachment. d(β3hL) = CC(C)C[C@@H](N)CC(=O)O; hPhe = N[C@@H](CCc1ccccc1)C(=O)O; ξβ3hL = CC(C)CC(N)CC(=O)O; Boc = CC(C)(C)OC(=O)*; ξβ3hA = CC(N)CC(=O)O; OBn = c1ccc(CO*)cc1; GABA = NCCCC(=O)O; βAla = NCCC(=O)O

Legend:
[1] = test system: cypris larvae of Striped Barnacle; conditions: Reference value, see Table 1 in non-Patent literature 8; cited from earlier work
[2] = test system: juvenile shellfish of Mediterranean mussel
Experimental: The sample was dissolved in ethanol to adjust to a concentration of 1 mg/mL. Thirty and 100 µL (30 and 100 µg) of the sample solutions were mixed with the solvent, and the mixtures were brought to a total volume of 500 µL. These mixtures were spread on the bottom surface of the glass beaker of the test container, and the solvent was volatilized by shaking them overnight.
A volume of 10 mL of the test seawater was added to the glass beakers of the test containers. The tests were initiated by introducing twelve test individuals into the test seawater in each beaker. The tests ended after three days, and the observation was conducted.
In Table 2, the terms "bottom surface-adhered individuals" and "wall surface-adhered individuals" refer to individuals that are adhered to the bottom surface and wall surface of the beaker, respectively; the term "bottom surface-crawling individuals" refers to individuals that move along the bottom surface without adhering; the term "overturned individuals or closed shell individuals (unadhered)" refers to individuals that are either overturned or in a closed shell without adhering to the bottom surface; and the term "number of byssal threads on the bottom surface" refers to the number of foot threads that are fixed to the bottom surface. In particular, the greater the reduction in the number of byssal threads, the stronger the effect of adhesion prevention.

[3] = test system: cypris larvae of Striped Barnacle
Experimental: (§1) After solutions of about 2 mL of the test compounds (tripeptides 2 to 10 and dipeptide 11) in ethanol were dispensed into each well of the 24-well polystyrene multi-well plate (3.2 mL/well, well diameter 15.5 mm, well height 17.6 mm, manufactured by Corning), the multi-well plate was air-dried to evaporate the ethanol.
(§2) The test compounds were aliquoted to achieve final concentrations of 0.03, 0.1, 0.3, 1, 3, and 10 µg/mL.
(§3) Subsequently, six individuals of the cypris larvae of Striped Barnacle (hereinafter simply referred to as "barnacle larvae") were transplanted into each well along with 2 mL of pre-filtered natural seawater. The multi-well plate was left standing in an incubator at 25°C, and the barnacle larvae were allowed to grow for two days at 25°C.
In the above procedure, a test for the control group was conducted by dispensing an ethanol solution without any test compound. […]
Forty-eight hours after the test started, the number of adhered individuals and the number of dead individuals of the barnacle larvae in each well were counted under a stereomicroscope. The adhesion rate (%) and mortality rate (%) of the barnacle larvae in each well were calculated, respectively. […]

[4] = test system: cypris larvae of Striped Barnacle; experiment: Evaluation of antifouling activities and toxicity against the cypris larvae of Striped Barnacle (24-well plate, adhesion and mortality after 48 h); assay type: in vivo, Amphibalanus amphitrite
Experimental: as §1, §2, §3
In the above procedure, a test for the control group was conducted by dispensing an ethanol solution without any test compound. The natural seawater used in the above test was prepared by diluting the natural seawater collected from the coastal area near Onjuku, Chiba Prefecture (salt concentration: 36 g/kg) with distilled water to adjust a salt concentration of 32 g/kg.
In the test group, the control group, and the comparison group, the tests were conducted in four times (four wells) for one concentration of each test compounds.
Forty-eight hours after the test started, the number of adhered individuals and the number of dead individuals of the barnacle larvae in each well were counted under a stereomicroscope. The adhesion rate (%) and mortality rate (%) of the barnacle larvae in each well were calculated, respectively. […] Similarly, for each test compound, a dose-mortality response curve was created to determine the half-maximal lethal concentration (48h LC50) that causes 50% mortality in the barnacle larvae. As a reference, the value of Boc-3 obtained from non-Patent literature 8 is also described.
In particular, the lower the settlement rate, the stronger the antifouling effect.

[5] = test system: juvenile shellfish of Mediterranean mussel; experiment: Evaluation of the antifouling activity and toxicity against the juvenile shellfish of Mediterranean mussel (coated glass beaker, 3 days); assay type: in vivo, Mytilus galloprovincialis; conditions: for bottom surface-adhered individuals % / bottom surface-crawling individuals % / overturned individuals or closed shell individuals (unadhered) % / wall surface-adhered individuals % / number of byssal threads on the bottom surface / bottom surface-adhered individuals No. / bottom surface-crawling individuals No. / overturned individuals or closed shell individuals (unadhered) No. / wall surface-adhered individuals No.: three days; for bottom surface-adhered individuals No. / bottom surface-crawling individuals No. / overturned individuals or closed shell individuals (unadhered) No. / wall surface-adhered individuals No.: twelve individuals; for antifouling effect (overall determination in words): juvenile Mediterranean mussel, 3.0 µg/mL and 10 µg/mL
Experimental: The sample was dissolved in ethanol to adjust to a concentration of 1 mg/mL. Thirty and 100 µL (30 and 100 µg) of the sample solutions were mixed with the solvent, and the mixtures were brought to a total volume of 500 µL. These mixtures were spread on the bottom surface of the glass beaker of the test container, and the solvent was volatilized by shaking them overnight. As a result, the samples to be evaluated were coated only on the bottom surface of the glass beaker.

[6] = test system: cypris larvae of the striped barnacle; conditions: Non-Patent Documents 5 and 7, cited from earlier work
[7] = test system: NCI-H460 (human lung cancer cell line); conditions: Non-Patent Document 4; cited from earlier work
[8] = test system: KM20L2 (human colon cancer cell line); conditions: Non-Patent Document 4; cited from earlier work
[9] = test system: SF-295 (human glioblastoma cell line); conditions: Non-Patent Document 4; cited from earlier work
[10] = 3 µg/mL (30 µg), twelve individuals, three days
[11] = Test Example 1, concentration that prevents adhesion of barnacle larvae by 50%, 48 h, 25°C, tested 0.03-10 µg/mL
[12] = Test Example 3, same manner as Test Example 1
[13] = Table 4 summary of results from Test Examples 1 to 3 (rounded)
[14] = Test Example 1, concentration causing 50% mortality in barnacle larvae, 48 h, 25°C, tested 0.03-10 µg/mL
[15] = 3 µg/mL (30 µg), control group 118

## CC(C)[C@@H](NC(=O)[C@@H]1CCCN1C(=O)[C@@H](NC(=O)OC(C)(C)C)[C@H](C)Cc1ccccc1)[C@@H](C)C(=O)OCc1ccccc1 [Boc-3]
[1]
  Toxicity 48h LC50: >10 µg/mL

## O=S(=O)([O-])[O-].[Cu+2] [Copper sulfate]
[2]; 3 µg/mL (30 µg), three days
  bottom surface-adhered individuals %: 0.0%
  bottom surface-crawling individuals %: 0.0%
  overturned individuals or closed shell individuals (unadhered) %: 100.0%
  wall surface-adhered individuals %: 0.0%
[2]; 3 µg/mL (30 µg), three days, control group 118
  number of byssal threads on the bottom surface: 2
[2]; [10]
  bottom surface-adhered individuals No.: 0
  bottom surface-crawling individuals No.: 0
  overturned individuals or closed shell individuals (unadhered) No.: 12
  wall surface-adhered individuals No.: 0
[2]; juvenile Mediterranean mussel, 3.0 µg/mL and 10 µg/mL
  antifouling effect (overall determination in words): high
[3]; [11]
  Antifouling activity 48h EC50: 0.41 µg/mL
[3]; [12]
  Antifouling activity 48h EC50: 0.3 µg/mL

## CC(C)C(NC(=O)[C@@H]1CCCN1C(=O)OC(C)(C)C)C(C)C(=O)OCc1ccccc1 (stereo partly shown) [dipeptide 11]
[4]; [13]
  Antifouling activity 48h EC50: 2.4 µg/mL
[4]; [14]
  Toxicity 48h LC50: >10 µg/mL
[4]; [11]
  Antifouling activity 48h EC50: 2.39 µg/mL

## CC(C)(C)OC(=O)N1CCC[C@H]1C(=O)Nc1ccccc1C(=O)OCc1ccccc1 [dipeptide 13, reference compound]
[4]; [13]
  Antifouling activity 48h EC50: 0.8 µg/mL
[4]; [12]
  Antifouling activity 48h EC50: 0.84 µg/mL
  Toxicity 48h LC50: >10 µg/mL

## CC(C)(C)OC(=O)N1CCC[C@H]1C(=O)N[C@@H](CC(=O)OCc1ccccc1)c1ccccc1 [dipeptide 14]
[4]; [13]
  Antifouling activity 48h EC50: 3.2 µg/mL
[4]; [12]
  Antifouling activity 48h EC50: 3.18 µg/mL
  Toxicity 48h LC50: >10 µg/mL

## CCOC(=O)[C@H](C)NC(=O)[C@@H]1CCCN1C(=O)[C@H](Cc1ccccc1)NC(=O)OC(C)(C)C [tripeptide 2] (Boc-Phe-Pro-Ala-OEt)
[4]; [13]
  Antifouling activity 48h EC50: >10 µg/mL
[4]; [14]
  Toxicity 48h LC50: >10 µg/mL
[4]; [11]
  Antifouling activity 48h EC50: >10 µg/mL

## CCOC(=O)[C@H](CC(C)C)NC(=O)[C@@H]1CCCN1C(=O)[C@H](Cc1ccccc1)NC(=O)OC(C)(C)C [tripeptide 3] (Boc-Phe-Pro-Leu-OEt)
[4]; [13]
  Antifouling activity 48h EC50: >10 µg/mL

## CCOC(=O)CCNC(=O)[C@@H]1CCCN1C(=O)[C@H](Cc1ccccc1)NC(=O)OC(C)(C)C [tripeptide 4] (Boc-Phe-Pro-[βAla]-OEt)
[4]; [13]
  Antifouling activity 48h EC50: >10 µg/mL
[4]; [14]
  Toxicity 48h LC50: >10 µg/mL
[4]; [11]
  Antifouling activity 48h EC50: >10 µg/mL

## CCOC(=O)CCCNC(=O)[C@@H]1CCCN1C(=O)[C@H](Cc1ccccc1)NC(=O)OC(C)(C)C [tripeptide 5] (Boc-Phe-Pro-[GABA]-OEt)
[4]; [13]
  Antifouling activity 48h EC50: >10 µg/mL
[4]; [14]
  Toxicity 48h LC50: >10 µg/mL
[4]; [11]
  Antifouling activity 48h EC50: >10 µg/mL

## CC(C)C(NC(=O)[C@@H]1CCCN1C(=O)[C@H](Cc1ccccc1)NC(=O)OC(C)(C)C)C(C)C(=O)OCc1ccccc1 (stereo partly shown) [tripeptide 6]
[4]; [13]
  Antifouling activity 48h EC50: 1.66 µg/mL
[4]; [14]
  Toxicity 48h LC50: >10 µg/mL
[4]; [11]
  Antifouling activity 48h EC50: 1.63 µg/mL

## CC(C)C(NC(=O)[C@@H]1CCCN1C(=O)[C@H](Cc1ccccc1)NC(=O)OC(C)(C)C)C(C)C(=O)O (stereo partly shown) [tripeptide 7]
[4]; [13]
  Antifouling activity 48h EC50: >10 µg/mL
[4]; [14]
  Toxicity 48h LC50: >10 µg/mL
[4]; [11]
  Antifouling activity 48h EC50: >10 µg/mL

## CC(C)CC(CC(=O)OCc1ccccc1)NC(=O)[C@@H]1CCCN1C(=O)[C@H](Cc1ccccc1)NC(=O)OC(C)(C)C (stereo partly drawn) [tripeptide 8] (Boc-Phe-Pro-[ξβ3hL]-OBn)
[4]; [13]
  Antifouling activity 48h EC50: 1.1 µg/mL
[4]; [14]
  Toxicity 48h LC50: >10 µg/mL
[4]; [11]
  Antifouling activity 48h EC50: 1.13 µg/mL
[4]; cypris larvae of Striped Barnacle, within the tested concentration range
  antifouling activity (in words): effective
[5]; 3 µg/mL (30 µg)
  bottom surface-adhered individuals %: 16.7%
  bottom surface-crawling individuals %: 0.0%
  overturned individuals or closed shell individuals (unadhered) %: 58.3%
  wall surface-adhered individuals %: 25.0%
  bottom surface-adhered individuals No.: 2
  bottom surface-crawling individuals No.: 0
  overturned individuals or closed shell individuals (unadhered) No.: 7
  wall surface-adhered individuals No.: 3
[5]; [15]
  number of byssal threads on the bottom surface: 25
[5]; 10 µg/mL (100 µg)
  bottom surface-adhered individuals %: 16.7%
  bottom surface-crawling individuals %: 0.0%
  number of byssal threads on the bottom surface: 12
  overturned individuals or closed shell individuals (unadhered) %: 83.3%
  wall surface-adhered individuals %: 0.0%
  bottom surface-adhered individuals No.: 2
  bottom surface-crawling individuals No.: 0
  overturned individuals or closed shell individuals (unadhered) No.: 10
  wall surface-adhered individuals No.: 0
[5]
  antifouling effect (overall determination in words): exhibit an antifouling effect
[5]; listed as compound 8
  antifouling effect (overall determination in words): effective

## CC(CC(=O)OCc1ccccc1)NC(=O)[C@@H]1CCCN1C(=O)[C@H](Cc1ccccc1)NC(=O)OC(C)(C)C (stereo partly drawn) [tripeptide 9] (Boc-Phe-Pro-[ξβ3hA]-OBn)
[5]; 3 µg/mL (30 µg)
  bottom surface-adhered individuals %: 75.0%
  bottom surface-crawling individuals %: 0.0%
  overturned individuals or closed shell individuals (unadhered) %: 16.7%
  wall surface-adhered individuals %: 8.3%
  bottom surface-adhered individuals No.: 9
  bottom surface-crawling individuals No.: 0
  overturned individuals or closed shell individuals (unadhered) No.: 2
  wall surface-adhered individuals No.: 1
[5]; [15]
  number of byssal threads on the bottom surface: 73
[5]; 10 µg/mL (100 µg)
  bottom surface-adhered individuals %: 58.3%
  bottom surface-crawling individuals %: 0.0%
  number of byssal threads on the bottom surface: 34
  overturned individuals or closed shell individuals (unadhered) %: 33.3%
  wall surface-adhered individuals %: 8.3%
  bottom surface-adhered individuals No.: 7
  bottom surface-crawling individuals No.: 0
  overturned individuals or closed shell individuals (unadhered) No.: 4
  wall surface-adhered individuals No.: 1
[5]
  antifouling effect (overall determination in words): effective

## CCOC(=O)CC(C)NC(=O)[C@@H]1CCCN1C(=O)[C@H](Cc1ccccc1)NC(=O)OC(C)(C)C (stereo partly drawn) [tripeptide 10] (Boc-Phe-Pro-[ξβ3hA]-OEt)
[5]; 3 µg/mL (30 µg)
  bottom surface-adhered individuals %: 66.7%
  bottom surface-crawling individuals %: 0.0%
  overturned individuals or closed shell individuals (unadhered) %: 8.3%
  wall surface-adhered individuals %: 25.0%
  bottom surface-adhered individuals No.: 8
  bottom surface-crawling individuals No.: 0
  overturned individuals or closed shell individuals (unadhered) No.: 1
  wall surface-adhered individuals No.: 3
[5]; [15]
  number of byssal threads on the bottom surface: 80
[5]; 10 µg/mL (100 µg)
  bottom surface-adhered individuals %: 58.3%
  bottom surface-crawling individuals %: 0.0%
  number of byssal threads on the bottom surface: 11.5
  overturned individuals or closed shell individuals (unadhered) %: 8.3%
  wall surface-adhered individuals %: 33.3%
  bottom surface-adhered individuals No.: 7
  bottom surface-crawling individuals No.: 0
  overturned individuals or closed shell individuals (unadhered) No.: 1
  wall surface-adhered individuals No.: 4
[5]
  antifouling effect (overall determination in words): ineffective

## CC(C)C[C@H](CC(=O)OCc1ccccc1)NC(=O)[C@@H]1CCCN1C(=O)[C@H](CCc1ccccc1)NC(=O)OC(C)(C)C [tripeptide 12] (Boc-[hPhe]-Pro-[d(β3hL)]-OBn)
[4]; [13]
  Antifouling activity 48h EC50: 0.5 µg/mL
[4]; [12]
  Antifouling activity 48h EC50: 0.49 µg/mL
  Toxicity 48h LC50: >10 µg/mL

## Dolastatin 16 [reference compound]
[5]; 3 µg/mL (30 µg)
  bottom surface-adhered individuals %: 75.0%
  bottom surface-crawling individuals %: 0.0%
  overturned individuals or closed shell individuals (unadhered) %: 0.0%
  wall surface-adhered individuals %: 25.0%
  bottom surface-adhered individuals No.: 9
  bottom surface-crawling individuals No.: 0
  overturned individuals or closed shell individuals (unadhered) No.: 0
  wall surface-adhered individuals No.: 3
[5]; [15]
  number of byssal threads on the bottom surface: 72
[5]; 10 µg/mL (100 µg)
  bottom surface-adhered individuals %: 100.0%
  bottom surface-crawling individuals %: 0.0%
  number of byssal threads on the bottom surface: 45
  overturned individuals or closed shell individuals (unadhered) %: 0.0%
  wall surface-adhered individuals %: 0.0%
  bottom surface-adhered individuals No.: 12
  bottom surface-crawling individuals No.: 0
  overturned individuals or closed shell individuals (unadhered) No.: 0
  wall surface-adhered individuals No.: 0
[5]
  antifouling effect (overall determination in words): no antifouling effect
[6]
  antifouling action (in words): antifouling actions
[6]; listed as synthetic Dolastatin 16
  antifouling action (in words): equivalent to that of the natural Dolastatin 16
[7]
  growth-inhibiting effect (in words): growth-inhibiting effect
[8]
  growth-inhibiting effect (in words): growth-inhibiting effect
[9]
  growth-inhibiting effect (in words): growth-inhibiting effect
